From patent US7161032B2, “Sulfonamide derivatives, insecticides for agricultural and horticultural use, and usage thereof” (Nihon Nohyaku Co., Ltd., priority 2002, dated 2007)

Legend:
Format in all cases: in vivo
[1] = tested on: Common Cutworm (Spodoptera litura); assay: Insecticidal effect on common cutworm (Test Example 2): cabbage leaf piece immersed in 50 ppm liquid chemical; conditions: common cutworm (Spodoptera litura) second-instar larvae, 8 days after inoculation, 25° C.
Description: A piece of cabbage leaf (cultivar: Shikidori) was immersed for about 30 seconds in a liquid chemical prepared by diluting a preparation containing each compound listed in Table 1 or 2 as an active ingredient to adjust the concentration to 50 ppm. After air-dryness, it was placed in a plastic Petri dish with a diameter of 9 cm and inoculated with second-instar larvae of common cutworm, after which the dish was closed and then allowed to stand in a room thermostated at 25° C. Eight days after the inoculation, the dead and alive were counted. The mortality was calculated according to the following equation and the insecticidal effect was judged according to the criterion shown in Test Example 1. The test was carried out with triplicate groups of 10 insects. [formula]

[2] = tested on: Smaller Tea Tortrix (Adoxophyes sp.); assay: Insecticidal effect on smaller tea tortrix (Test Example 3): tea leaves immersed in 50 ppm liquid chemical; conditions: smaller tea tortrix (Adoxophyes sp.) larvae, 8 days after inoculation, 25° C., humidity 70%
Description: Tea leaves were immersed for about 30 seconds in a liquid chemical prepared by diluting a preparation containing each compound listed in Table 1 or 2 as an active ingredient to adjust the concentration to 50 ppm. After air-dryness, the tea leaves were placed in a plastic Petri dish with a diameter of 9 cm and inoculated with larvae of smaller tea tortrix, after which the dish was allowed to stand in a room thermostated at 25° C. and having a humidity of 70%. Eight days after the inoculation, the dead and alive were counted and the insecticidal effect was judged according to the criterion shown in Test Example 1. The test was carried out with triplicate groups of 10 insects.

[3] = tested on: Diamond Back Moth (Plutella xylostella); assay: Insecticidal effect on diamond back moth (Test Example 1): egg-bearing Chinese cabbage seedling immersed in 50 ppm liquid chemical
Description: Adult diamond back moths were released and allowed to oviposit on a Chinese cabbage seedling. Two days after the release, the seedling having the eggs deposited thereon was immersed for about 30 seconds in a liquid chemical prepared by diluting a preparation containing each compound listed in Table 1 or 2 as an active ingredient to adjust the concentration to 50 ppm. After air-dryness, it was allowed to stand in a room thermostated at 25° C. Six days after the immersion, the hatched insects were counted. The mortality was calculated according to the following equation and the insecticidal effect was judged according to the criterion shown below. The test was carried out with triplicate groups of 10 insects. [formula]

Row | Structure (SMILES) | Insecticidal effect (mortality grade), Test Example 2 [1] | Insecticidal effect (mortality grade), Test Example 3 [2] | Insecticidal effect (mortality grade), Test Example 1 [3]
1 | Cc1cc(C(F)(C(F)(F)F)C(F)(F)F)ccc1NC(=O)c1cccc(I)c1C(=O)NC(C)CS(=O)(=O)NCc1ccc(SC(F)(F)F)cc1 (stereo not drawn) [1-38] | A (Mortality 100%) | A (Mortality 100%) | A (Mortality 100%)
2 | Cc1cc(C(F)(C(F)(F)F)C(F)(F)F)ccc1NC(=O)c1cccc(I)c1C(=O)NC(C)CS(=O)(=O)NCc1ccccn1 (stereo not drawn) [1-39] | A (Mortality 100%) | A (Mortality 100%) | A (Mortality 100%)
3 | Cc1cc(C(F)(C(F)(F)F)C(F)(F)F)ccc1NC(=O)c1cccc(I)c1C(=O)NC(C)CS(=O)(=O)NCc1cccnc1 (stereo not drawn) [1-40] | A (Mortality 100%) | A (Mortality 100%) | A (Mortality 100%)
4 | Cc1cc(C(F)(C(F)(F)F)C(F)(F)F)ccc1NC(=O)c1cccc(I)c1C(=O)NC(C)CS(=O)(=O)NCc1ccncc1 (stereo not drawn) [1-41] | A (Mortality 100%) | A (Mortality 100%) | A (Mortality 100%)
5 | Cc1cc(C(F)(C(F)(F)F)C(F)(F)F)ccc1NC(=O)c1cccc(I)c1C(=O)NC(C)CS(=O)(=O)N(C)Cc1ccccc1 (stereo not drawn) [1-42] | A (Mortality 100%) | A (Mortality 100%) | A (Mortality 100%)
6 | CCN(Cc1ccccc1)S(=O)(=O)CC(C)NC(=O)c1c(I)cccc1C(=O)Nc1ccc(C(F)(C(F)(F)F)C(F)(F)F)cc1C (stereo not drawn) [1-43] | A (Mortality 100%) | A (Mortality 100%) | A (Mortality 100%)
7 | Cc1cc(C(F)(C(F)(F)F)C(F)(F)F)ccc1NC(=O)c1cccc(I)c1C(=O)NC(C)CS(=O)(=O)NC(C)c1ccccc1 (stereo not drawn) [1-44] | A (Mortality 100%) | A (Mortality 100%) | A (Mortality 100%)
8 | Cc1cc(C(F)(C(F)(F)F)C(F)(F)F)ccc1NC(=O)c1cccc(I)c1C(=O)NC(C)CS(=O)(=O)N[C@H](C)c1ccccc1 (stereo partly drawn) [1-45] | A (Mortality 100%) | A (Mortality 100%) | A (Mortality 100%)
9 | Cc1cc(C(F)(C(F)(F)F)C(F)(F)F)ccc1NC(=O)c1cccc(I)c1C(=O)NC(C)CS(=O)(=O)N[C@@H](C)c1ccccc1 (stereo partly drawn) [1-46] | A (Mortality 100%) | A (Mortality 100%) | A (Mortality 100%)
10 | Cc1cc(C(F)(C(F)(F)F)C(F)(F)F)ccc1NC(=O)c1cccc(I)c1C(=O)NC(C)CS(=O)(=O)NCCc1ccccc1 (stereo not drawn) [1-47] | A (Mortality 100%) | A (Mortality 100%) | A (Mortality 100%)
11 | Cc1cc(C(F)(C(F)(F)F)C(F)(F)F)ccc1NC(=O)c1cccc(I)c1C(=O)NC(C)CS(=O)(=O)NC(C)(C)Cc1ccccc1 (stereo not drawn) [1-48] | C (Mortality 89–80%) | A (Mortality 100%) | A (Mortality 100%)
12 | Cc1cc(C(F)(C(F)(F)F)C(F)(F)F)ccc1NC(=O)c1cccc(I)c1C(=O)NC(C)CS(=O)(=O)N1CCOCC1 (stereo not drawn) [1-54] | A (Mortality 100%) | A (Mortality 100%) | A (Mortality 100%)
13 | Cc1cc(C(F)(C(F)(F)F)C(F)(F)F)ccc1NC(=O)c1cccc(I)c1C(=O)NC(C)CS(=O)(=O)N1CCSCC1 (stereo not drawn) [1-55] | A (Mortality 100%) | A (Mortality 100%) | A (Mortality 100%)
14 | Cc1cc(C(F)(C(F)(F)F)C(F)(F)F)ccc1NC(=O)c1cccc(I)c1C(=O)NC(C)CS(=O)(=O)N1CC[S+]([O-])CC1 (stereo not drawn) [1-56] | A (Mortality 100%) | A (Mortality 100%) | A (Mortality 100%)
15 | Cc1cc(C(F)(C(F)(F)F)C(F)(F)F)ccc1NC(=O)c1cccc(I)c1C(=O)NC(C)CS(=O)(=O)N1CCS(=O)(=O)CC1 (stereo not drawn) [1-57] | A (Mortality 100%) | A (Mortality 100%) | A (Mortality 100%)
16 | Cc1cc(C(F)(C(F)(F)F)C(F)(F)F)ccc1NC(=O)c1cccc(I)c1C(=O)NC(C)(C)CS(=O)(=O)N1CCSCC1 [1-58] | A (Mortality 100%) | E (Mortality less than 50%) | A (Mortality 100%)
17 | Cc1cc(C(F)(C(F)(F)F)C(F)(F)F)ccc1NC(=O)c1cccc(I)c1C(=O)NC(C)(C)CS(=O)(=O)N1CC[S+]([O-])CC1 [1-59] | A (Mortality 100%) | E (Mortality less than 50%) | A (Mortality 100%)
18 | Cc1cc(C(F)(C(F)(F)F)C(F)(F)F)ccc1NC(=O)c1cccc(I)c1C(=O)NC(C)(C)CS(=O)(=O)N1CCS(=O)(=O)CC1 [1-60] | A (Mortality 100%) | E (Mortality less than 50%) | A (Mortality 100%)
19 | Cc1cc(C(F)(C(F)(F)F)C(F)(F)F)ccc1NC(=O)c1cccc(I)c1C(=O)NC(C)(C)CS(=O)(=O)N1CCSCC1C (stereo not drawn) [1-61] | A (Mortality 100%) | A (Mortality 100%) | A (Mortality 100%)
20 | Cc1cc(C(F)(C(F)(F)F)C(F)(F)F)ccc1NC(=O)c1cccc(I)c1C(=O)NC(C)(C)CS(=O)(=O)N1CC[S+]([O-])CC1C (stereo not drawn) [1-62] | A (Mortality 100%) | A (Mortality 100%) | A (Mortality 100%)
